These results are taken from patent publication US11780823B2, “Indazole-3-carboxamides and their use as Wnt/β-catenin signaling pathway inhibitors” (BioSplice Therapeutics, Inc., priority 2011, dated 2023).

For the test, the system named is Wnt activity (wnt-responsive SP5 promoter luciferase reporter in SW480 cells). The test is described as follows: Wnt reporter screening assay: SP5 promoter-driven firefly luciferase in SW480 cells. Type of test: cell-based. The note with it: Homo sapiens; SW480 colon cancer cells with SP5 promoter luciferase reporter; half-log dilutions, ten micromolar top concentration; read 24-40 h after compound addition; normalized to DMSO; read-out: Wnt inhibition. From the text:
Another screening assay for Wnt activity is described as follows. Reporter cell lines can be generated by stably transducing cells of cancer cell lines (e.g., colon cancer) with a lentiviral construct that include a wnt-responsive promoter driving expression of the firefly luciferase gene.
Lentiviral constructs can be made in which the SP5 promoter, a promoter having eight TCF/LEF binding sites derived from the SP5 promoter, is linked upstream of the firefly luciferase gene. The lentiviral constructs can also include a hygromycin resistance gene as a selectable marker. The SP5 promoter construct can be used to transduce SW480 cells, a colon cancer cell line having a mutated APC gene that generates a truncated APC protein, leading to de-regulated accumulation of β-catenin.
Cultured SW480 cells bearing a reporter construct can be distributed at approximately 10,000 cells per well into 96 well or 384 well plates. Compounds from a small molecule compound library can then be added to the wells in half-log dilutions using a ten micromolar top concentration. A series of control wells for each cell type receive only buffer and compound solvent. Twenty-four to forty hours after the addition of compound, reporter activity for luciferase can be assayed, for example, by addition of the BrightGlo luminescence reagent (Promega) and the Victor3 plate reader (Perkin Elmer). Readings can be normalized to DMSO only treated cells, and normalized activities can then be used in the IC50 calculations.

`O=C(Nc1cccnc1)c1n[nH]c2ccc(-c3cncc(CN4CCOCC4)c3)cc12` [Compound 64, 5-(5-(Morpholinomethyl)pyridin-3-yl)-N-(pyridin-3-yl)-1H-indazole-3-carboxamide]: the IC50 amounted to 6 nM.

`O=C(Nc1ccc(-c2ccccc2)nc1)c1n[nH]c2ccc(-c3cncc(CN4CCCCC4)c3)cc12` [Compound 65, N-(6-Phenylpyridin-3-yl)-5-(5-(piperidin-1-ylmethyl)pyridin-3-yl)-1H-indazole-3-carboxamide]: the IC50 was found to be 101 nM.

As for `N#Cc1cncc(-c2ccc3[nH]nc(C(=O)Nc4cccnc4)c3c2)c1` [Compound 66, 5-(5-Cyanopyridin-3-yl)-N-(pyridin-3-yl)-1H-indazole-3-carboxamide], the IC50 was at least 10000 nM.

On to `O=C(Nc1cccnc1)c1n[nH]c2ccc(-c3cc(F)cc(CN4CCCCC4)c3)cc12` [Compound 67, 5-(3-Fluoro-5-(piperidin-1-ylmethyl)phenyl)-N-(pyridin-3-yl)-1H-indazole-3-carboxamide], for which the IC50 was at least 10000 nM.

In the case of `O=C(Nc1ccc(C(F)(F)F)nc1)c1n[nH]c2ccc(-c3cncc(CN4CCOCC4)c3)cc12` [Compound 68, 5-(5-(Morpholinomethyl)pyridin-3-yl)-N-(6-(trifluoromethyl)pyridin-3-yl)-1H-indazole-3-carboxamide], the IC50 worked out at 48 nM.

As for `O=C(Nc1ccc(N2CCOCC2)nc1)c1n[nH]c2ccc(-c3cncc(CN4CCCCC4)c3)cc12` [Compound 69, N-(6-Morpholinopyridin-3-yl)-5-(5-(piperidin-1-ylmethyl)pyridin-3-yl)-1H-indazole-3-carboxamide], the IC50 amounted to 50 nM.

In the case of `CN1CCN(c2ccc(NC(=O)c3n[nH]c4ccc(-c5cncc(CN6CCCCC6)c5)cc34)cn2)CC1` [Compound 70, N-(6-(4-Methylpiperazin-1-yl)pyridin-3-yl)-5-(5-(piperidin-1-ylmethyl)pyridin-3-yl)-1H-indazole-3-carboxamide], the IC50 was 41 nM.

Turning to `O=C(Nc1ccc(N2CCCC2)nc1)c1n[nH]c2ccc(-c3cncc(CN4CCCCC4)c3)cc12` [Compound 71, 5-(5-(Piperidin-1-ylmethyl)pyridin-3-yl)-N-(6-(pyrrolidin-1-yl)pyridin-3-yl)-1H-indazole-3-carboxamide], the IC50 came to 25 nM.

Regarding `O=C(Nc1ccc(-c2cccc(F)c2)nc1)c1n[nH]c2ccc(-c3cncc(CN4CCCCC4)c3)cc12` [Compound 72, N-(6-(3-Fluorophenyl)pyridin-3-yl)-5-(5-(piperidin-1-ylmethyl)pyridin-3-yl)-1H-indazole-3-carboxamide], the IC50 stood at 215 nM.

Consider `O=C(Nc1ccc(-c2ccc(F)cc2)nc1)c1n[nH]c2ccc(-c3cncc(CN4CCCCC4)c3)cc12` [Compound 73, N-(6-(4-Fluorophenyl)pyridin-3-yl)-5-(5-(piperidin-1-ylmethyl)pyridin-3-yl)-1H-indazole-3-carboxamide], for which the IC50 is 322 nM.

For the compound `CN(C)CCN(C)c1ccc(NC(=O)c2n[nH]c3ccc(-c4cncc(CN5CCCCC5)c4)cc23)cn1` [Compound 74, N-(6-((2-(Dimethylamino)ethyl)(methyl)amino)pyridin-3-yl)-5-(5-(piperidin-1-ylmethyl)pyridin-3-yl)-1H-indazole-3-carboxamide], the IC50 is 65 nM.

Regarding `O=C(Nc1ccnnc1)c1n[nH]c2ccc(-c3cncc(CN4CCCCC4)c3)cc12` [Compound 75, 5-(5-(Piperidin-1-ylmethyl)pyridin-3-yl)-N-(pyridazin-4-yl)-1H-indazole-3-carboxamide], the IC50 is 40 nM.

Regarding `O=C(NCc1cccnc1)c1n[nH]c2ccc(-c3cncc(CN4CCCCC4)c3)cc12` [Compound 76, 5-(5-(Piperidin-1-ylmethyl)pyridin-3-yl)-N-(pyridin-3-ylmethyl)-1H-indazole-3-carboxamide], the IC50 was determined as 850 nM.

Consider `O=C(NC1CCCCC1)c1n[nH]c2ccc(-c3cncc(CN4CCCCC4)c3)cc12` [Compound 77, N-Cyclohexyl-5-(5-(piperidin-1-ylmethyl)pyridin-3-yl)-1H-indazole-3-carboxamide], for which the IC50 is 2650 nM.

For the compound `O=C(Nc1ccc2c(c1)OCO2)c1n[nH]c2ccc(-c3cncc(CN4CCCCC4)c3)cc12` [Compound 78, N-(Benzo[d][1,3]dioxol-5-yl)-5-(5-(piperidin-1-ylmethyl)pyridin-3-yl)-1H-indazole-3-carboxamide], the IC50 turned out to be 239 nM.

As to `O=C(Nc1ccc2c(c1)OCCO2)c1n[nH]c2ccc(-c3cncc(CN4CCCCC4)c3)cc12` [Compound 79, N-(2,3-Dihydrobenzo[b][1,4]dioxin-6-yl)-5-(5-(piperidin-1-ylmethyl)pyridin-3-yl)-1H-indazole-3-carboxamide], the IC50 was 123 nM.

In the case of `O=C(Nc1cncc(Cc2ccccc2)c1)c1n[nH]c2ccc(-c3cncc(CN4CCCCC4)c3)cc12` [Compound 80, N-(5-Benzylpyridin-3-yl)-5-(5-(piperidin-1-ylmethyl)pyridin-3-yl)-1H-indazole-3-carboxamide], the IC50 was found to be 158 nM.

Turning to `O=C(Nc1cnccn1)c1n[nH]c2ccc(-c3cncc(CN4CCCCC4)c3)cc12` [Compound 81, 5-(5-(Piperidin-1-ylmethyl)pyridin-3-yl)-N-(pyrazin-2-yl)-1H-indazole-3-carboxamide], the IC50 is 77 to 142 nM.

`O=C(Nc1ccccc1)c1n[nH]c2ccc(-c3cncc(CN4CCCCC4)c3)cc12` [Compound 82, N-Phenyl-5-(5-(piperidin-1-ylmethyl)pyridin-3-yl)-1H-indazole-3-carboxamide]: the IC50 lay within 143 to 188 nM.

As to `CN1CCN(C(=O)c2n[nH]c3ccc(-c4cncc(CN5CCCCC5)c4)cc23)CC1` [Compound 83, (4-Methylpiperazin-1-yl)(5-(5-(piperidin-1-ylmethyl)pyridin-3-yl)-1H-indazol-3-yl)methanone], the IC50 was in the range of 2500 to 3400 nM.

`C[C@@H]1CCC[C@H](C)N1Cc1cncc(-c2ccc3[nH]nc(C(=O)Nc4cccnc4)c3c2)c1` [Compound 84, 5-(5-(((2R,6S)-2,6-Dimethylpiperidin-1-yl)methyl)pyridin-3-yl)-N-(pyridin-3-yl)-1H-indazole-3-carboxamide]: the IC50 lay within 822 to 898 nM.

As to `CN(C)Cc1cncc(NC(=O)c2n[nH]c3ccc(-c4cncc(CN5CCCCC5)c4)cc23)c1` [Compound 86, N-(5-((Dimethylamino)methyl)pyridin-3-yl)-5-(5-(piperidin-1-ylmethyl)pyridin-3-yl)-1H-indazole-3-carboxamide], the IC50 came out at 66 nM.

On to `CN1CCC(NC(=O)c2n[nH]c3ccc(-c4cncc(CN5CCCCC5)c4)cc23)CC1` [Compound 87, N-(1-Methylpiperidin-4-yl)-5-(5-(piperidin-1-ylmethyl)pyridin-3-yl)-1H-indazole-3-carboxamide], for which the IC50 amounted to 2440 nM.

Regarding `CN(C)Cc1cncc(NC(=O)c2n[nH]c3ccc(-c4cncc(CN5CCCC5)c4)cc23)c1` [Compound 106, N-(5-((Dimethylamino)methyl)pyridin-3-yl)-5-(5-(pyrrolidin-1-ylmethyl)pyridin-3-yl)-1H-indazole-3-carboxamide], the IC50 amounted to 33 nM.

In the case of `CN1CCN(Cc2cncc(NC(=O)c3n[nH]c4ccc(-c5cncc(CN6CCCCC6)c5)cc34)c2)CC1` [Compound 124, N-(5-((4-Methylpiperazin-1-yl)methyl)pyridin-3-yl)-5-(5-(piperidin-1-ylmethyl)pyridin-3-yl)-1H-indazole-3-carboxamide], the IC50 was found to be 67 nM.
